According to patent publication US10344330B2, “Glatiramer acetate response biomarker mRNA potency assay” (Mylan Inc., priority 2013, dated 2019):

Assays:
Format in all cases: cell-based
[1] = test system: mouse IL-2 mRNA in primary LN cells; experiment: Mouse IL-2 mRNA in LN cells of Copaxone-, GMA- or mannitol-immunized SJL/J mice stimulated with Copaxone and GMA lots, normalized to Actβ or GAPDH (Example V)
Experimental: (§1) A real-time polymerase chain reaction method was used to measure the expression of cytokine mRNA in GA-stimulated LN cells from GA-immunized SJL/J mice. Normalization of expression with two different housekeeping genes, GAPDH and β-actin, was tested.
(§2) Each group consisted of six female SJL/J mice immunized by injection in all four footpads with a total dose of 250 μg of one lot of GA, or mannitol and no GA. Three Copaxone batches and three GMA batches were used to immunize the mice. CFA was included in both GA and mannitol immunizations. Ten days following immunization, LN cell samples isolated from the immunized mice were each stimulated with a concentration of a Copaxone lot and a GMA lot. A positive control of 2.5 μg/mL ConA treated LN cells and a negative control of 10 μg/mL MBP treated cells were included in each group.
(§3) Therefore, the Q-PCR analysis was repeated on the samples, measuring levels of IL-2, IL-4, IL-5, and IL-13, using both GAPDH and β-actin as reference gene.

[2] = test system: mouse IL-5 mRNA in primary LN cells; experiment: Validation: mouse IL-5 mRNA by real-time PCR in LN cells of GA-immunized SJL/J mice (Example IV); details: for IL-5 mRNA Fold Change: normalized to GAPDH; for induction of IL-5 mRNA: 20 μg/mL GA, 6 hours
Experimental: Three experiments were conducted using one batch of GA (Mylan GMA). The primary LN cells were stimulated by incubation with 6 concentrations (0.3 to 20 μg/mL) of the GA for 6 hours at 37° C. Total RNA was isolated from LN cells stimulated with GA or controls. cDNA was synthesized from the RNA and the mRNA levels of seven mouse cytokines, IL-2, IL-4, IL-5, IL-10, IL-13, interferon (IFN)-γ and tumor necrosis factor (TNF)-α, were quantitatively measured by a real-time PCR method.
Female SJL/J mice at 8-9 weeks of age were immunized by injection into four footpads using a 1 mL syringe with a 27-G, ½-inch needle. Each mouse received a total injection volume of 0.1 mL of GMA emulsified in CFA (about 10 μL into each of the front footpads and 40 μL into each of the hind footpads). Animals were immunized on Day 0. After injection, animals were placed back in their cages and housed ≤6 animals per cage.
Immunized animals were sacrificed by cervical dislocation on Day 10 following immunization. […] After centrifugation at about 200×g for 10 minutes at 4° C., the cell pellet was re-suspended in 40 mL of DCCM-1 medium for cell counting. A Trypan blue exclusion method was used to determine the cell density of viable cells in the suspension. After cell counting, the LN cells were suspended in enriched DCCM-1 medium at density of 7.5×10^6 cells/mL. LN cells (0.12 mL) were plated into each well of 96-well tissue culture plates.
Dilutions of GA (Mylan GMA) were prepared using enriched DCCM-1 medium as the diluent. GA dilutions (0.12 mL) were added in the assigned wells of 96-well tissue culture plates. The same volume of LN cells (0.12 mL) isolated from immunized animals was added to the assigned wells. A positive control and a negative control were always performed in the same assay by treating LN cells with 2.5 μg/mL ConA and 10 μg/mL MBP, respectively. The LN cells with mock stimulation protocols (enriched DCCM-1 medium) were used to monitor the background mRNA level of a cytokine. The plates were incubated at 37° C. in a humidified 5% CO2 incubator for 6 hr.
At the end of incubation time, culture medium from stimulated cells was removed by aspiration and the cells were lysed using Qiagen or Promega lysis buffer. The lysate was transferred to an RNeasy Mini column (Qiagen) or wells of the SV 96 Binding Plate (Promega) for RNA isolation and cDNA synthesis. All tested samples were run in triplicate.
The SV 96 Total RNA Isolation System (Promega; Cat. No. Z3505) was used for total RNA isolation. Assay procedures were carried out according to each manufacturer's protocol. RNA samples were stored at −70° C. until use. […] The assay procedure was carried out according to the manufacturer's protocol.
The plate was centrifuged at 2000 rpm for 2 minutes at 4° C. to spin down the contents and eliminate air bubbles. Samples were prepared and run in a 96-well plate using a Life Technologies Real-Time PCR system (previously Applied Biosystems; Model No. 7500) according to the manufacturer's recommendation. The mix for the reference gene was prepared in the same way using the reference gene primer.
A relative quantitation method was used to analyze changes in mIL-2, mIL-4, mIL-5, mIL-10, mIL-13, mIFN-γ and TNF-α expression in GA treated samples relative to the untreated control (Enriched DCCM-1 treated) samples using the following program:
Levels of mouse cytokine amplicons were normalized to an internal probe level (GAPDH) from the same samples. The following equations were used to calculate the relative increase in response to GA stimulation compared to the control sample (Enriched DCCM1 sample): […]

[3] = test system: mouse IL-13 mRNA in primary LN cells; experiment: Mouse IL-13 mRNA in LN cells of immunized SJL/J mice stimulated with Copaxone and GMA lots, normalized to Actβ or GAPDH (Example V); details: for 1L-13 mRNA Fold Change: normalized to Actβ; for IL-13 mRNA Fold Change: normalized to GAPDH
Experimental: as §1, §2, §3

[4] = test system: mouse IL-4 mRNA in primary LN cells; experiment: Mouse IL-4 mRNA in LN cells of immunized SJL/J mice stimulated with Copaxone and GMA lots, normalized to Actβ or GAPDH (Example V)
Experimental: as §1, §2, §3

[5] = Group 3 (mice immunized with GA-M2 Mylan GMA), 2.5 μg/mL, normalized to Actβ
[6] = Group 3 (mice immunized with GA-M2 Mylan GMA), 2.5 μg/mL, normalized to GAPDH
[7] = Group 4 (mice immunized with GA-C2 Copaxone), 2.5 μg/mL, normalized to Actβ
[8] = Group 4 (mice immunized with GA-C2 Copaxone), 2.5 μg/mL, normalized to GAPDH
[9] = Copaxone: C/A, GMA: B/D, 5 μg/mL
[10] = Group 3 (mice immunized with GA-M2 Mylan GMA), 10 μg/mL, normalized to Actβ
[11] = Group 3 (mice immunized with GA-M2 Mylan GMA), 10 μg/mL, normalized to GAPDH
[12] = Group 4 (mice immunized with GA-C2 Copaxone), 10 μg/mL, normalized to Actβ
[13] = Group 4 (mice immunized with GA-C2 Copaxone), 10 μg/mL, normalized to GAPDH

**Q.** With “Concanavalin A [ConA, reference compound]” as the molecule, how does the “IL-2 mRNA Fold Change” value [1, 5] read?
**A.** Its value is 123.4 fold.

**Q.** And the “IL-2 mRNA Fold Change” value [1, 6]?
**A.** Its value is 149.4 fold.

**Q.** And the “IL-2 mRNA Fold Change” value [1, 7]?
**A.** The value was 105.0 fold.

**Q.** And the “IL-2 mRNA Fold Change” value [1, 8]?
**A.** Its value is 84.8 fold.

**Q.** And the “IL-5 mRNA Fold Change” value ([2]; Experiment 1, 2.5 μg/mL)?
**A.** Its value is 22.4 fold.

**Q.** And the “IL-5 mRNA Fold Change” value ([2]; Experiment 2, 2.5 μg/mL)?
**A.** The value was 11.3 fold.

**Q.** What about the “IL-5 mRNA Fold Change” value ([2]; Experiment 3, 2.5 μg/mL) of the same molecule?
**A.** The value was 31.0 fold.

**Q.** And the “1L-13 mRNA Fold Change” value ([3]; Group ID 3, 2.5 μg/mL)?
**A.** Its value is 15.6 fold.

**Q.** What about the “IL-13 mRNA Fold Change” value ([3]; Group ID 3, 2.5 μg/mL) of the same molecule?
**A.** The value was 27.4 fold.

**Q.** What about the “1L-13 mRNA Fold Change” value ([3]; Group ID 4, 2.5 μg/mL) of the same molecule?
**A.** The value was 20.4 fold.

**Q.** And the “IL-13 mRNA Fold Change” value ([3]; Group ID 4, 2.5 μg/mL)?
**A.** Its value is 34.8 fold.

**Q.** What about the “IL-4 mRNA Fold Change” value [4, 5] of the same molecule?
**A.** The value was 43.6 fold.

**Q.** And the “IL-4 mRNA Fold Change” value [4, 6]?
**A.** Its value is 87.9 fold.

**Q.** What about the “IL-4 mRNA Fold Change” value [4, 7] of the same molecule?
**A.** The value was 48.3 fold.

**Q.** What about the “IL-4 mRNA Fold Change” value [4, 8] of the same molecule?
**A.** The value was 84.8 fold.

**Q.** With “L-glutamic acid polymer with L-alanine, L-lysine and L-tyrosine, acetate (salt) [GA]” as the molecule, how does the IL-2 cross-potency [1, 9] read?
**A.** The IL-2 cross-potency was 108%.

**Q.** And the “induction of IL-5 mRNA” value ([2]; SJL/J, Exp 1)?
**A.** The value was 5.2 fold.

**Q.** And the “induction of IL-5 mRNA” value ([2]; SJL/J, Exp 2)?
**A.** Its value is 5.3 fold.

**Q.** What about the “induction of IL-5 mRNA” value ([2]; SJL/J, Exp 3) of the same molecule?
**A.** The value was 15.2 fold.

**Q.** What about the “induction of IL-5 mRNA (in words)” value ([2]; SJL/J, different concentrations of GA vs unstimulated LN cells) of the same molecule?
**A.** The value was “moderate induction”.

**Q.** What about the IL-13 cross-potency [3, 9] of the same molecule?
**A.** The IL-13 cross-potency was 74.8%.

**Q.** And the IL-4 cross-potency [4, 9]?
**A.** Its IL-4 cross-potency is 103%.

B1: MBP: myelin basic protein, a negative control (protein, UniProt P02686 1-304, looked up)
Myelin basic protein: MGNHAGKRELNAEKASTNSETNRGESEKKRNLGELSRTTSEDNEVFGEADANQNNGTSSQDTAVTDSKRTADPKNAWQDAHPADPGSRPHLIRLFSRDAPGREDNTFKDRPSESDELQTIQEDSAATSESLDVMASQKRPSQRHGSKYLATASTMDHARHGFLPRHRDTGILDSIGRFFGGDRGAPKRGSGKDSHHPARTAHYGSLPQKSHGRTQDENPVVHFFKNIVTPRTPPPSQGKGRGLSLSRFSWGAEGQRPGFGYGGRASDYKSAHKGFKGVDAQGTLSKIFKLGGRDSRSGSPMARR
**Q.** How did the “IL-2 mRNA Fold Change” value [1, 10] turn out when B1 was run?
**A.** Its value is 1.2 fold.

**Q.** And the “IL-2 mRNA Fold Change” value [1, 11]?
**A.** The value was 0.7 fold.

**Q.** And the “IL-2 mRNA Fold Change” value [1, 12]?
**A.** Its value is 0.8 fold.

**Q.** And the “IL-2 mRNA Fold Change” value [1, 13]?
**A.** The value was 1.3 fold.

**Q.** What about the “IL-5 mRNA Fold Change” value ([2]; Experiment 1, 10 μg/mL) of the same molecule?
**A.** Its value is 0.8 fold.

**Q.** And the “IL-5 mRNA Fold Change” value ([2]; Experiment 2, 10 μg/mL)?
**A.** Its value is 0.8 fold.

**Q.** And the “IL-5 mRNA Fold Change” value ([2]; Experiment 3, 10 μg/mL)?
**A.** Its value is 2.6 fold.

**Q.** And the “1L-13 mRNA Fold Change” value ([3]; Group ID 3, 10 μg/mL)?
**A.** The value was 0.7 fold.

**Q.** What about the “IL-13 mRNA Fold Change” value ([3]; Group ID 3, 10 μg/mL) of the same molecule?
**A.** The value was 0.5 fold.

**Q.** What about the “1L-13 mRNA Fold Change” value ([3]; Group ID 4, 10 μg/mL) of the same molecule?
**A.** Its value is 1.0 fold.

**Q.** And the “IL-13 mRNA Fold Change” value ([3]; Group ID 4, 10 μg/mL)?
**A.** The value was 1.2 fold.

**Q.** What about the “IL-4 mRNA Fold Change” value [4, 10] of the same molecule?
**A.** Its value is 0.8 fold.

**Q.** And the “IL-4 mRNA Fold Change” value [4, 11]?
**A.** The value was 0.7 fold.

**Q.** And the “IL-4 mRNA Fold Change” value [4, 12]?
**A.** The value was 2.4 fold.

**Q.** And the “IL-4 mRNA Fold Change” value [4, 13]?
**A.** The value was 1.3 fold.
